Data published in patent US20200048469A1, “POLYMERIC TANDEM DYES HAVING PENDANT NARROW EMISSION ACCEPTOR” (Becton, Dickinson and Company, priority 2018, published 2020).

Experiments:
[1] = Spectroscopic characterization of BODIPY dyes (absorption, emission, FWHM, quantum yield); type: physicochemical; conditions: for Abs Max / Em Max: Table 1, free dye, solvent not stated; for FWHM: Table 1, full width half maximum of emission, free dye
Procedure: (§1) A variety of BODIPY dyes were prepared and conjugated to polymeric dyes to prepare polymeric tandem dyes. […] The spectroscopic characteristics of particular BODIPY dyes and polymeric tandem dyes including the same were assessed. […] Further details of exemplary BODPY dyes and tandem dyes including the same are provided below in Tables 1 and 2.

[2] = Absorption and emission spectra of free narrow emission dyes in ethanol; type: physicochemical
Procedure: as §1

| Molecule | Abs Max [1] [nm] | Em Max [1] [nm] | FWHM [1] [nm] | further results |
| --- | --- | --- | --- | --- |
| Cc1cc(C)n2c1C=C1C=CC(CCC(=O)O)=[N+]1[B-]2(F)F [BODIPY FL] | 505 | 513 | 21 | – |
| O=C(O)CCc1ccc2n1[B-](F)(F)[N+]1=C(c3ccccc3)C=CC1=C2 [BODIPY R6G] | 533 | 550 | 26 | – |
| CCN1\C(=C/C=C/C=C/C2=[N+](CCCCCC(=O)O)c3ccc4c(S(=O)(=O)O)cc(S(=O)(=O)O)cc4c3C2(C)C)C(C)(C)c2c1ccc1c(S(=O)(=O)[O-])cc(S(=O)(=O)O)cc21 [Cy5.5] | – | – | – | Dye Abs. max ([2]; dye in ethanol): 673 nm; Dye Em. FWHM ([2]; dye in ethanol): 42 nm; Dye Em. Max ([2]; dye in ethanol): 691 nm; Dye Stokes Shift ([2]; dye in ethanol): 18 nm |
| CCN1/C(=C/C=C/C=C/C2=[N+](CCCCCC(=O)O)c3ccc(S(=O)(=O)O)cc3C2(C)C)C(C)(C)c2cc(S(=O)(=O)[O-])ccc21 [Cy5] | – | – | – | Dye Abs. max ([2]; dye in ethanol): 649 nm; Dye Em. FWHM ([2]; dye in ethanol): 35 nm; Dye Em. Max ([2]; dye in ethanol): 666 nm; Dye Stokes Shift ([2]; dye in ethanol): 17 nm |
| CCN1C(=CC=CC=CC=CC2=[N+](CCCCCC(=O)O)c3ccc(S(=O)(=O)O)cc3C2(C)C)C(C)(C)c2cc(S(=O)(=O)[O-])ccc21 [Cy7] | – | – | – | Dye Abs. max ([2]; dye in ethanol): 752 nm; Dye Em. FWHM ([2]; dye in ethanol): 52 nm; Dye Em. Max ([2]; dye in ethanol): 776 nm; Dye Stokes Shift ([2]; dye in ethanol): 24 nm |
| BODIPY 581/591 | 582 | 590 | 29 | – |
| BODIPY 630/650 | 630 | 641 | 30 | – |
| BODIPY 650/665 | 650 | 665 | 37 | – |
| BODIPY TMR | 550 | 570 | 30 | – |
| BODIPY TR | 590 | 620 | 35 | – |
| CF594 | – | – | – | Dye Abs. max ([2]; measured in DMAC): 592 nm; Dye Em. FWHM ([2]; measured in DMAC): 37 nm; Dye Em. Max ([2]; measured in DMAC): 615 nm; Dye Stokes Shift ([2]; measured in DMAC): 23 nm |
